Data: ChEMBL document CHEMBL5050851, “Compounds that induce ferroptic cell death” (2020)

Experiments:
[1] = test system: ES-2; assay: Antiproliferative activity against human ES2 cells assessed as cell death after 72 hrs by Alamar blue viability assay; assay type: functional, cell-based; conditions: ES-2, 72 h
[2] = test system: HCT-116; assay: Antiproliferative activity against human HCT-116 cells assessed as cell death after 72 hrs by Alamar blue viability assay; assay type: functional, cell-based; conditions: HCT-116, 72 h

In the case of CO[C@H]1C[C@@]23CC[C@@H](C)[C@@](C)([C@H](OC(=O)c4ccco4)C[C@@H](C4=CCn5c(=O)n(-c6ccccc6)c(=O)n5C4)[C@@H]2C)[C@]3(O)C1=O, the IC50 [1] is reported as over 100 µM and the IC50 [2] is reported as over 100 µM.

With CO[C@H]1C[C@@]23CC[C@@H](C)[C@@](C)([C@H](OC(=O)CCl)C[C@@H](C4=CCn5c(=O)n(-c6ccccc6)c(=O)n5C4)[C@@H]2C)[C@]3(O)C1=O the IC50 [1] was 1.9 µM and the IC50 [2] was 3 µM.

In the case of CO[C@H]1C[C@@]23CC[C@@H](C)[C@@](C)([C@H](OC(C)=O)C[C@@H](C4=CCn5c(=O)n(-c6ccccc6)c(=O)n5C4)[C@@H]2C)[C@]3(O)C1=O, the IC50 [1] is reported as over 100 µM and the IC50 [2] is reported as over 100 µM.

Compound CO[C@H]1C[C@@]23CC[C@@H](C)[C@@](C)([C@H](OC(=O)C(Cl)Cl)C[C@@H](C4=CCn5c(=O)n(-c6ccccc6)c(=O)n5C4)[C@@H]2C)[C@]3(O)C1=O has an IC50 [1] of over 100 µM and an IC50 [2] of over 100 µM.

In the case of C[C@@H]1CC[C@@]23C[C@H](O)C(=O)[C@@]2(O)[C@]1(C)[C@H](OC(=O)CF)C[C@@H](C1=CCn2c(=O)n(-c4ccccc4)c(=O)n2C1)[C@@H]3C, the IC50 [1] is reported as 34 µM and the IC50 [2] is reported as over 100 µM.

In the case of CC1=CC(C)=[N+]2C1=Cc1ccc(CCC(=O)NCCCn3cc(CN4C(=O)C5CC=C([C@@H]6C[C@@H](OC(=O)CCl)[C@]7(C)[C@H](C)CC[C@]8(C[C@H](O)C(=O)[C@]87O)[C@H]6C)CC5C4=O)nn3)n1[B-]2(F)F (some centres undefined), the IC50 [1] is reported as 5.3 µM and the IC50 [2] is reported as 14.2 µM.

Compound CC(=O)O[C@H]1C[C@@]23CC[C@@H](C)[C@@](C)([C@H](OC(=O)CCl)C[C@@H](C4=CCn5c(=O)n(-c6ccccc6)c(=O)n5C4)[C@@H]2C)[C@]3(O)C1=O has an IC50 [1] of 1.4 µM and an IC50 [2] of 3.9 µM.
